This is an account of results in US4874780A, “Anticancer compounds” (Norsk Hydro a.s., priority 1987, dated 1989).

Where two headings read alike, the source gives them in different places.

For data set [1], the system named is NHIK 3025 cells. As to the kind of experiment: Cell survival (colony formation) after 24 hr treatment. It is filed as cell-based. The following applies: Homo sapiens, NHIK3025, 24 h. The source says: (§1) Human cells of the established line NHIK 3025, originating from a cervical carcinoma in situ (Nordbye, K., and Oftebro, R. Exp. Cell Res., 58: 458, 1969), Oftebro, R., and Nordbye, K., Exp. Cell Res., 58: 459-460, 1969) were cultivated in Medium E2a (Puck, T.T. et al., J. Exp. Med., 106:145-165, 1957) supplemented with 20% human (prepared at the laboratory) and 10% horse serum (Grand Island Biological Co.). The cells are routinely grown as monolayers in tissue culture flasks.
(§2) The cells were kept in continuous exponential growth by frequent reculturing, i.e., every second and third day, and synchronized cell populations with a high degree of synchrony were obtained by repeated selection of mitotic cells (Pettersen, E. O. et al, Cell Tissue Kinet., 10: 511-522, 1977). During the synchronization procedure, the cells were kept in Medium E2a, and the whole experiment took place in a walk-in incubator at 37° C. Under growth conditions as used here, the NHIK 3025 cells have a medium cell-cycle time of ~18 hr, with medium G1, S1 and G2 durations of ~7, ~8, and ~2.5 hr, respectively.
For measurement of cell survival, appropriate numbers of cells were seeded in plastic Petri dishes (.phi.=5 cm). The number of cells seeded into each dish was adjusted such that the number of surviving cells would be approximately 150 per dish. While exponentially growing (asynchronous) cells were trypsinized before seeding, synchronized cells were seeded immediately after selection. After about 2 hr, the cells had attached to the bottom of the dishes, and the treatment was started by replacing the medium with medium containing the appropriate drug concentration. After the desired time of treatment, the drug-containing medium was removed, and fresh medium was added. The dishes were rinsed once with the same medium as was to be added on addition or removal of drug. After 10 to 12 days at 37° C. in a CO2 incubator, the cells were fixed in ethanol and stained with methylene blue before the colonies were counted.
The cytotoxic effect of benzaldehyde and of deuterobenzaldehyde-d1 was tested on asynchronous, exponentially growing NHIK 3025 cells by counting the number of cells able to form colonies after 24 hr treatment in Petri dishes. In Table 1 the results represent 2 different, independent experiments where the numbers give the mean fraction of surviving cells from 10 parallel dishes (± standard error).
Fraction of cells surviving 24 hr treatment with benzaldehyde or deuterobenzaldehyde - d1 in Petri dishes. (The values represent the mean±standard error from 10 different dishes.)

For data set [2], the system named is NHIK 3025 cells. As to the kind of experiment: Protein synthesis rate ((3H)valine incorporation). It is filed as cell-based, human. The following applies: 3.2 mM.
Text: as §1, §2
The rate of protein synthesis was calculated as described previously (Ronning, O. W. et al., J. Cell Physiol., 107: 47-57, 1981). Briefly, cellular protein was labeled to saturation during a 2-day preincubation with (^14 C)valine of constant specific radioactivity (0.5 Ci/mol) prior to the experiment. This was achieved by using a high concentration of valine so that the dilution of (^14 C)valine by intracellular valine and by proteolytically generated valine will be negligible (Ronning, O. W., et al. Exp. Cell Res. 123: 63-72, 1979), thus keeping the specific radioactivity at a constant level. The rate of protein synthesis was calculated from the incorporation of (3H)valine of constant specific activity. The incorporation measurements were related to the total of (^14 C) radioactivity in protein at the beginning of the respective measurement periods and expressed as the percentage per hr (Ronning, O. W. et al, J. Cell, Physiol. 107: 47-57, 1981).
[…] The last measurements were done to test the reversibility of the drugs. Drug concentration: 3.2 mM.

Data set [3] relates to NHIK 3025 cells. As to the kind of experiment: Duration of cell cycle-time of synchronized cells. It is filed as cell-based, human. The following applies: 8 hr treatment.
Text: as §1, §2
(§3) For detection of the drug effects on cell-cycle kinetics, the same methods were used as described previously (Lindmo, T., and Pettersen, E. O., Cell Tissue Kinet., 12: 43-57, 1979), (Pettersen, E. O. et al, Eur. J. Cancer Clin. Oncol., 19: 507-514; 1983), (Ronning, O.W. et al., J. Cell. Physiol., 109: 411-419, 1981). Briefly, the selected mitotic cells were seeded into 8 tissue culture flasks (25 sq cm) 5000 cells per flask. The cells divided within 1 hr and attached as doublets to the bottom of the flasks. […] Analyses of durations of mitosis were performed from these observations (Table 4).
This is shown by the data in Table 3, where we have used synchronized cells treated over an 8 hr period starting 2 hr after mitotic selection, i.e. when the cells were in early Gl.

The subject of data set [4] is NHIK 3025 cells. As to the kind of experiment: Duration of mitosis of synchronized cells. It counts as cell-based, human. As to conditions: 3.2 mM during mitosis.
Text: as §1, §2, §3
This effect is probably directly related to the aldehyde group (Pettersen et al. Cancer Res. 45: 2085-2091, 1985). If the deuterated aldehyde group induces different biological effects from the undeuterated one it is therefore good reason to expect this to be expressed as a difference in effect on cells in mitosis. In Table 4 results are shown on prolongation of mitosis of synchronized cells treated with benzaldehyde or deuterobenzaldehyde-d1 during mitosis. The numbers in the table represent the percentage of the cells having a duration of mitosis below 1 hr (which is normal for untreated cells) or above the number of hours indicated on top of each column.

Data set [5] concerns NHIK 3025 cells. As to conditions: previous studies; cited from earlier work.
Data set [6] deals with NHIK 3025 cells. As to conditions: Pettersen et al. 1983, cited from earlier work.
Data set [7] relates to NHIK 3025 cells. As to conditions: Pettersen et al. 1983, cited from earlier work. This is another data set of the same source.
For data set [8], the system named is NHIK 3025 cells. The following applies: previous studies (Pettersen et al. 1983), cited from earlier work.
In data set [9] the test system is mucous membranes. The following applies: pure form; cited from earlier work.
A short description of data set [10]: Concentration of BG or BG-d1 in blood samples after iv injection (HPLC). It is filed as in vivo, male Wistar rats. The protocol:
Measurement of concentration of 4,6-O-benzylidene-D-glucose (BG) or 4,6-O-deuterobenzylidene-d1 -D-glucose (BG-d1) in blood samples (Table 5).
(§4) Blood samples were taken from male Wistar rats immediately before and at several intervals after intravenous injection of BG or BG-d1. Blood serum was separated by centrifugation. Equal amounts of blood serum and HPLC-grade acetonitrile were mixed and centrifuged at 13,000 rpm (15,000×g) for 5 minutes. Samples were then analyzed for BG or BG-d1 content by High Performance Liquid Chromatography (HPLC). Samples were placed in an autosampler programmed for replicate injections of […] each onto a 4.6×250 mm LC18 HPLC column. The column was eluted with 45% aqueous methanol delivered at 1 ml/min. BG or BG-d1 were detected by using a spectrofluorometer set at excitation and emission wavelengths of 255 and 283 nm, respectively. The slit width used was 10 nm. Quantitation of the amount of BG or BG-d1 in serum samples was performed with an electronic integrator calibrated with standard solutions of BG or BG-d1 in the mobile phase (Pettersen et al., Anticancer Res., 6; 147-152, 1986).
We have compared the metabolism in rats of BG as well as of deuterated BG (BG-d1). In Table 5 the serum concentration of BG or BG-d1 is shown at various time points after a single iv injection of each drug, respectively.

A short description of data set [11]: BG or BG-d1 metabolites in blood samples after iv injection (HPLC peak height). As to conditions: rat. It is filed as in vivo, male Wistar rats. As for the experimental part:
as §4
Measurement of BG or BG-d1 metabolites in blood samples (Table 6)
HPLC of blood samples was performed as indicated above. Relative amounts of BG- or BG-d1 -metabolite were determined by peak height analysis. The peak height from the electronic integrator (in microvolts) of samples taken 30 minutes after iv injection of BG, or 60 minutes after iv injection of BG-d1 were normalized to 1. All other metabolite peaks were compared with these values.
At the same time as BG or BG-d1 metabolism was being determined, a separate metabolite peak appeared in HPLC chromatograms. The increase in BG- and BG-d1 -metabolite and subsequent clearance was measured.

Data set [12] is described as follows: Stability in vitro. It is filed as in vitro ADME.
[13] abbreviates: read-out: Fraction of cells surviving 24 hr treatment.
[14] abbreviates: read-out: Cell survival of cells treated for 24 hr.

With `O=Cc1ccccc1` [Benzaldehyde], the viability at 3200 µM in [1] (setting [13]) turned out to be 64 ± 18%. For the same compound, the viability at 12800 µM in [1] (setting [13]) was found to be 2.4 ± 0.8%. The Protein synthesis in data set [2] (4 hr treatment, pulse 0-1, during treatment, Table 2, control 6.8 ± 0.9) is on record as 3.7 ± 0.3 %/hr; in [2] (4 hr treatment, pulse 4-5, after treatment, Table 2, control 6.8 ± 0.9), 5.1 ± 0.3 %/hr; in [2] (4 hr treatment, pulse 5-6, after treatment, Table 2, control 6.8 ± 0.9) it was 6.7 ± 0.5 %/hr. Moreover, the Prolongation in data set [3] (2 mM, versus control 1) was determined as 7.9%; in data set [3] (2.5 mM, versus control 2), 63.7%. Also, the “Duration of the part of the cell cycle starting 2 hr after selection” value in [3] (2 mM, control 1 16.5) amounted to 17.8; in [3] (2.5 mM, control 2 16.8), 27.5. Besides, the “Percentage of cells with duration of mitosis >4 h” value in [4] stood at 49%. Besides, the “Percentage of cells with duration of mitosis >5 h” value in data set [4] is listed as 35%. Also, the “Percentage of cells with duration of mitosis >6 h” value in data set [4] came out at 21%. Moreover, the “Percentage of cells with duration of mitosis >3 h” value in data set [4] (control 2%) turned out to be 70%. In addition, the “Percentage of cells with duration of mitosis >2 h” value in data set [4] (control 4%) is listed as 87%. Moreover, the “Percentage of cells with duration of mitosis >1 h” value in data set [4] (control 17%) is listed as 95%. Moreover, in data set [4] (control 83%), the “Percentage of cells with duration of mitosis <1 h” value is recorded as 5%. Moreover, the “Inactivation of cells treated during mitosis (in words)” value in [5] was “inactivated efficiently by benzaldehyde”. In addition, the “Protein synthesis inhibition (in words)” value in data set [6] is given as “inhibit protein sythesis in a reversible manner”; in data set [6] (listed as benzaldehyde), “protein synthesis inhibition”. Also, the entries for the “Cell cycle progression (in words)” value in data set [7] and in data set [7] (listed as benzaldehyde) were “inhibits cell cycle progression” and “cell-cycle progression is reduced”, respectively. For the same compound, the figures for the “Inhibition during mitosis (in words)” value in data set [8] and in [8] (listed as benzaldehyde) were “induces specific inhibition during mitosis” and “specific prolongation of mitosis”, respectively. Further, the “Irritating effect on mucous membranes” value in data set [9] is reported as “strongly irritating effect on mucous membranes”.
Consider `OC1O[C@@H]2COC(c3ccccc3)O[C@H]2[C@H](O)[C@H]1O` (stereo partly drawn) [BG, 4,6-O-benzylidene-D-glucose], for which the viability at 6400 µM in data set [1] (setting [14]) amounted to 30 ± 5%. Besides, in data set [1] (setting [14]), the viability at 12800 µM worked out at 0.78 ± 0.18%. The Protein synthesis in [2] (asynchronous cells, 3 hr treatment, pulse 0-1 hr, during treatment, Table 8, control 5.7 ± 0.5) amounted to 2.9 ± 0.7 %/hr; in data set [2] (asynchronous cells, 3 hr treatment, pulse 2-3 hr, during treatment, Table 8, control 5.7 ± 0.5) it was 2.9 ± 0.1 %/hr; in [2] (synchronized cells, 22 hr treatment, pulse 21-22 hr, during treatment, Table 8, control 5.3 ± 0.2), 4.8 ± 0.5 %/hr; in data set [2] (synchronized cells, 22 hr treatment, pulse 23-24 hr, after treatment, Table 8, control 5.3 ± 0.2) it was 5.5 ± 0.1 %/hr. Besides, the “half-life in vivo (in words)” value in data set [10] (in vivo) was “relatively short half-life in vivo”. For the same compound, the “Amount of unmetabolized drug in blood samples” value in data set [10] (rat, iv, 60 minutes, N.F. = Not Found) is “N.F”. Moreover, the concentration at 0 h in [10] (serum, rat, iv, 0 minutes (estimated), read-out: Amount of unmetabolized drug in blood samples) was 345 µM. In addition, the concentration at 2 min in [10] (serum, rat, iv, 2 minutes, read-out: Amount of unmetabolized drug in blood samples) came out at 230 ± 16 µM. In data set [10] (serum, rat, iv, 5 minutes, read-out: Amount of unmetabolized drug in blood samples), the concentration at 5 min is 110 ± 10 µM. Also, the concentration at 10 min in data set [10] (serum, rat, iv, 10 minutes, read-out: Amount of unmetabolized drug in blood samples) worked out at 96 ± 15 µM. Moreover, the concentration at 0.25 h in [10] (serum, rat, iv, 15 minutes, read-out: Amount of unmetabolized drug in blood samples) is 66 ± 18 µM. Moreover, the concentration at 20 min in data set [10] (serum, rat, iv, 20 minutes, read-out: Amount of unmetabolized drug in blood samples) amounted to 48 ± 11 µM. Further, the concentration at 25 min in data set [10] (serum, rat, iv, 25 minutes, read-out: Amount of unmetabolized drug in blood samples) is 40 ± 5 µM. The concentration at 0.5 h in data set [10] (serum, rat, iv, 30 minutes, read-out: Amount of unmetabolized drug in blood samples) turned out to be 33 ± 8 µM. In addition, in data set [10] (serum, rat, iv, read-out: half-life in vivo), the half-life (as a rule, the time needed for the level to fall by half in the phase considered) is approximately 5 min. The “Relative amount of metabolite” value came to 1.00 in data set [11] (30 minutes after iv injection, BG sample normalized to 1) and 0.927 ± 0.008 in [11] (45 minutes after iv injection, maximum peak = 1). Further, the “Period over which compound is stable in vitro” value in data set [12] was “at least 24 hr”. Besides, the “Protein synthesis inhibition (in words)” value in data set [6] is “only protein synthesis inhibition is known to appear during treatment with BG”.
